The record followed here is PubChem BioAssay (NCI).

Holding throughout (assay): NCI tumour cell line growth inhibition, 48 h
For assay [1], the system named is DMS 273 small cell lung.
In assay [2] the test system is XF 498 CNS.
Assay [3] concerns DLD-1 colon.
In assay [4] the test system is M19-MEL melanoma.
Assay [5] concerns KM20L2 colon.
In assay [6] the test system is LXFL 529 NSCLC.
Assay [7] has as its system DMS 114 small cell lung.
Assay [8] has as its system RXF-631 renal.
The test system of assay [9] is MDA-N.
The subject of assay [10] is P388 leukemia.

Each structure is given as a SMILES string. Values joined by “and” are separate entries in the source; they are usually repeats but may differ in a detail not shown here. Identical values can stand only once.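 Cultured in 96-well plates, cells were exposed to test compound for 48 hours across five concentrations. At the GI50, growth is halved. TGI: concentration producing complete growth inhibition.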 Where a SMILES comes first, the peptide text is derived from it. Bridges are numbered along the chain shown (N, C = ends).

`CC1(C)C=C(N2CCN(C3=CC(C)(C)NC(C)(C)C3)CC2)CC(C)(C)N1`: the TGI in [1], in assay [2], in assay [3], in assay [4], in assay [5] and in [6] was over 100 µM each time. In [7], this compound had a TGI of over 100 µM.
Take `CC(O)(c1ccc(OCCC[N+](C)(C)C)cc1)C(C)(O)c1ccc(OCCC[N+](C)(C)C)cc1` (stereo unspecified): the TGI in assay [1], in assay [3], in assay [5], in [6] and in [7] was over 100 µM in each case.
In the case of `CSC(=NC(=O)c1ccccc1)SCCSC(=NC(=O)c1ccccc1)SC`, the TGI in [1], in [2], in assay [3], in assay [8], in [4] and in assay [5] was over 100 µM in each case. Moreover, the TGI in [6] and in assay [7] was over 100 µM in each case.
Regarding `CN(CCc1ccccn1)/[N+]([O-])=N/O` (tested in a mixture with another compound), the TGI in [1], in assay [3], in assay [8], in assay [4], in assay [5] and in assay [6] was over 100 µM throughout. Besides, in [7], the TGI was over 100 µM.
On to `CCCCCCCCC1C(C)c2c([nH]c3ccccc23)C2C(=O)N(c3ccccc3)C(=O)C21` (stereo unspecified), for which the TGI in assay [1] turned out to be 22.2 µM; in [3], 45.2 µM; in assay [8] it was 14.2 µM; in assay [4], 31.9 µM; in assay [5], 31.7 µM; in assay [6], 30.1 µM. In assay [7], the TGI was found to be 23.4 µM.
For `COC(=O)/C=C(C)/C=C/c1c(C)c(C(C)=O)c(C)n1C`, the TGI in assay [1], in assay [2], in assay [3], in assay [8], in assay [4] and in assay [5] was over 100 µM in each case. Besides, in assay [6], the TGI was over 100 µM.
With `CCc1cc2c(Nc3ccccc3)c3c(nc2s1)CCCC3`, the TGI in assay [1] was over 100 µM; in [2], 85.1 µM; in [3] it was over 100 µM; in [8] it was over 100 µM; in assay [4], over 100 µM; in [5], over 100 µM. Moreover, the TGI in assay [6] and in [7] was over 100 µM each time.
As to `CCc1nc(N)nc(N)c1-c1ccc(N(C)Cc2ccccc2)c([N+](=O)[O-])c1`, the TGI in [9] is 19.1 µM.
As to `O=[N+]([O-])c1cc(C(F)(F)F)cc2n[se]nc12`, the TGI in [1] came to 27.3 µM; in [2], 5.66 µM; in [3], 8.93 µM; in assay [8], 30.8 µM; in assay [9], 3.85 µM; in assay [4], 10.6 µM. The figures for the TGI in assay [5], in assay [6] and in assay [7] were 16.4 µM, 3.14 µM and 5.92 µM, respectively.
On to `CC(/C=C1\CCC(CN(C)C)C1=O)c1cccc(Br)c1` (stereo unspecified), for which the TGI in assay [2] is 35.1 µM; in assay [3], 35.1 µM; in [8], 16.9 µM; in [4], 50.2 µM; in assay [5] it was 45.4 µM; in [6], 17.1 µM. In assay [7], the TGI came to 54.8 µM.
In turn, `CC(C)c1ccc(C(O)(C(=O)O)c2ccc(C(C)C)cc2)cc1` came in with a TGI in assay [9] of over 100 µM.
`CCCCCCCCCCCCCC(=O)NO`: the TGI was 27.3 µM in assay [1]; 60.3 µM in assay [2]; over 94.8 µM in assay [3]; over 62.5 µM in assay [8]; over 100 µM in assay [9]; 56.3 µM in [4]. Also, the TGI in assay [5] is 26 µM; in [6], 38.7 µM; in assay [7], 27.2 µM.
Compound `CCC(C)C1NC(=O)C(CC(C)C)NC(=O)C(C(C)C)NC(=O)C2CSSCC(NC1=O)C(=O)N2` (stereo unspecified) (cyclo(CCVLI); disulfide 1-2; configuration not given here) gave a TGI in [9] of 0.339 µM.
In the case of `CCCc1nn(C)c(CCC(=O)N(Cc2ccccc2)Cc2ccccc2)c1CC`, the TGI in [2], in [3], in assay [4], in [5], in [6] and in assay [7] was over 100 µM in each case.
Take `CCC1=CCC(P(=O)(c2ccccc2)c2ccccc2)CC1C` (stereo unspecified): the TGI in assay [1], in assay [2], in [4], in assay [5], in assay [6] and in assay [7] was over 100 µM each time.
As for `Cc1ccc(-c2nc3ccccc3c(=O)n2NC2OC(CO)C(O)C(O)C2O)cc1` (stereo unspecified), the TGI in [1], in [2], in assay [8], in assay [4], in assay [5] and in assay [6] was over 100 µM in each case. The compound further showed a TGI in assay [7] of over 100 µM.
Consider `CC[C@@]1(O)C(=O)OCc2c1cc1n(c2=O)Cc2cc3cccc(N)c3nc2-1`, for which the GI50 in assay [1] was 1.78 µM; in [2], 27.3 µM; in [3], over 100 µM; in assay [4], 13.1 µM; in [5] it was 26.2 µM; in assay [6], over 100 µM. For the same compound, the TGI in assay [1] is 8.48 µM; in assay [2] it was 82.1 µM; in assay [3], over 100 µM; in assay [4], over 100 µM; in [5] it was over 100 µM; in assay [6] it was over 100 µM.
In the case of `CN(CO)c1nc(N(C)CO)nc(N(C)CO)n1`, the TGI was 25.8 µM in assay [1]; 12.8 µM in [2]; 97.2 µM in assay [3]; 23.8 µM in assay [10]; 39.3 µM and 63.4 µM in assay [9]; 17.2 µM in [4]. Also, in [5], the TGI came to 25.2 µM. Moreover, in assay [9], the GI50 was 24.8 µM.
